US8093220B2, “Combination of an HDAC inhibitor and an antimetabolite” (Novartis AG, priority 2006, dated 2012)
Values joined by “and” are separate entries in the source; they are usually repeats but may differ in a detail not shown here. Equal entries are not always repeated.

What was measured:
AML cell line U937 = test: Western immunoblotting of U937 cells for acetylated tubulin, p21 and PARP; type: cell-based; settings: 2 μM 5-aza, 10 nM LBH589 or combination, 24 hours, western blot (FIG. 1)
Protocol: The AML cell line U937 is incubated with LBH589 or 5-aza as single agents or in combination.
U937 cells are treated with 2 μM 5-aza, 10 nM LBH589 or with a combination of 5-aza+LBH589 for 24 hours. Cells are lysed, proteins separated by SDS-PAGE and western immunoblotting analysis done with antibodies against acetylated tubulin, p21, PARP and β-actin (control for loading).

[1] = system: primary human AML blast cells; test: Loss of viability of primary patient AML cells, trypan-blue exclusion; type: cell-based; settings: one table row per patient (1-6)
Protocol: To further test the combination of LBH589+5-aza to induce cell death in AML, the U937 AML cell lines and fresh leukemia blast cells from AML patients are incubated with the compounds either as a combination or as single agents. Cell death is either monitored by cells staining for Annexin V (signifying apoptosis) or by counting live cells by trypan-blue exclusion. […] Importantly, no antagonism is observed when the two compounds are combined. […] Trypan-blue exclusion is used to count number of viable cells and percentage of dead cells for each treatment calculated and tabulated.

SMILES | PARP cleavage as a measure of apoptotic cell death (AML cell line U937) | acetylation of alpha-tubulin (AML cell line U937) | expression of the cell growth inhibitor p21 (AML cell line U937) | % Cell Death ([1]; Aza 1 μM, listed as Aza) | % Cell Death ([1]; Aza 2 μM, listed as Aza) | % Cell Death ([1]; LBH-589 10 nM) | % Cell Death ([1]; LBH-589 50 nM)
Nc1ncn([C@@H]2O[C@H](CO)[C@@H](O)[C@H]2O)c(=O)n1 [5-aza, 5-azacytidine] | only a slight PARP cleavage | not | induces the expression | 8.6% and 16.5% and 25.9% and 13.1% and 15% and 19.3% | 10.1% and 19.3% and 28.5% and 15.9% and 22.6% and 40.4% |  | 
Cc1[nH]c2ccccc2c1CCNCc1ccc(/C=C/C(=O)NO)cc1 [LBH589, N-hydroxy-3-[4-[[[2-(2-methyl-1H-indol-3-yl)-ethyl]-amino]methyl]phenyl]-2E-2-propenamide] | only a slight PARP cleavage | induces increased acetylation | induces the expression |  |  | 15.4% and 22.3% and 41.9% and 19.5% and 73.7% and 35.9% | 45.1% and 34.2% and 62.6% and 41.6% and 85.6% and 48.9%
